Laboratory results reported in PubChem BioAssay (NCI).
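Cells were grown in 96-well plates and exposed to each compound for 48 hours at five concentrations; endpoints were interpolated linearly between bracketing concentrations, or set to the highest concentration if not reached. Here, GI50 denotes the concentration required for 50% inhibition of growth. The concentration for full growth arrest is given as TGI.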

Legend:
Assay in all cases: inhibition of tumour cell growth, NCI panel, 48 h
MALME-3M melanoma = system: MALME-3M melanoma
UACC-257 melanoma = system: UACC-257 melanoma
UO-31 renal = system: UO-31 renal
SNB-75 CNS = system: SNB-75 CNS
A549 NSCLC = system: A549 NSCLC
786-0 renal = system: 786-0 renal
SK-OV-3 ovarian = system: SK-OV-3 ovarian
SK-MEL-28 melanoma = system: SK-MEL-28 melanoma
PC-3 prostate = system: PC-3 prostate
DU-145 prostate = system: DU-145 prostate

Row | Structure (SMILES) | TGI (MALME-3M melanoma) | TGI (UACC-257 melanoma) | TGI (UO-31 renal) | TGI (SNB-75 CNS) | TGI (A549 NSCLC) | TGI (786-0 renal) | TGI (SK-OV-3 ovarian) | TGI (SK-MEL-28 melanoma) | GI50 (786-0 renal) | GI50 (PC-3 prostate) | TGI (PC-3 prostate) | GI50 (SK-MEL-28 melanoma) | GI50 (UACC-257 melanoma) | GI50 (UO-31 renal) | GI50 (SNB-75 CNS) | GI50 (DU-145 prostate) | TGI (DU-145 prostate) | GI50 (A549 NSCLC) | GI50 (SK-OV-3 ovarian)
1 | COC1(OC)CC2C(=O)N(Cc3ccccc3)C1C=C2S(=O)(=O)c1ccccc1 (stereo unspecified) | 39.6 µM | 34.5 µM | 65.1 µM | 93.9 µM | 64.2 µM | 38.2 µM | > 100 µM | 31.9 µM |  |  |  |  |  |  |  |  |  |  | 
2 | CC(C)N(C(=O)C12C3C4C1(I)C1C2C3(I)C41C(=O)N(C(C)C)C(C)C)C(C)C (stereo unspecified) | > 100 µM | > 100 µM | > 100 µM | > 100 µM | > 100 µM | > 64.4 µM | > 100 µM | > 100 µM |  |  |  |  |  |  |  |  |  |  | 
3 | Cc1cc(NS(=O)(=O)c2ccc(Nc3c4ccccc4nc4c(C(=O)N5CCN(CCO)CC5)ccc(Cl)c34)cc2)no1 | > 100 µM | > 100 µM | > 100 µM | > 100 µM | > 100 µM | > 100 µM | > 100 µM | > 100 µM |  |  |  |  |  |  |  |  |  |  | 
4 | O=Cc1ccc2c(c1-c1c(C=O)ccc3c1OCO3)OCO2 | > 100 µM | > 100 µM | > 100 µM | > 100 µM | > 100 µM | > 100 µM | > 100 µM | > 100 µM |  |  |  |  |  |  |  |  |  |  | 
5 | CCC1CCc2c(c(=O)oc3c2cc(OC)c2cccc(OC)c23)C1 (stereo unspecified) | > 100 µM | > 100 µM | > 100 µM | > 100 µM | > 100 µM | > 100 µM | > 100 µM | > 100 µM |  |  |  |  |  |  |  |  |  |  | 
6 | Cc1c(/C=N/NC(=O)c2ccc(Cl)cc2)c(=O)n(-c2ccccc2)n1C | > 100 µM | > 100 µM | > 100 µM | > 100 µM | > 100 µM | > 100 µM | > 100 µM | > 100 µM |  |  |  |  |  |  |  |  |  |  | 
7 | O=P1(c2ccccc2)CCCCC1 | > 100 µM | > 100 µM | > 100 µM | > 100 µM | > 100 µM | > 100 µM | > 100 µM | > 100 µM |  |  |  |  |  |  |  |  |  |  | 
8 | COc1ncc(-c2ccc3ncnc(Nc4cccc(Cl)c4)c3c2)cc1NS(=O)(=O)C1CC1 |  |  |  |  |  | > 100 µM |  | > 100 µM | 4.82 µM | > 100 µM | > 100 µM | > 100 µM |  |  |  |  |  |  | 
9 | COc1cc2c(OC)cc1CSCc1sc(C)c(c1Br)CSC2 | > 100 µM | > 100 µM | > 100 µM | > 100 µM | > 100 µM | > 100 µM | > 100 µM | > 100 µM |  |  |  |  |  |  |  |  |  |  | 
10 | O=C(Nc1ccc(F)cc1)c1cc(S(=O)(=O)Nc2nc3ccccc3o2)c(SCc2ccccc2)cc1Cl |  | 28.4 µM | 29.2 µM | 56.9 µM | 38.4 µM | 35.3 µM | 53.1 µM | 58.2 µM | 18.5 µM | 24.4 µM | 53.5 µM | 25.8 µM | 13.5 µM | 14.1 µM | 24.3 µM | 19.2 µM | 35.4 µM | 18.3 µM | 22.1 µM
11 | Cc1cccc(C)c1NC(=O)C(=O)C(C(=O)c1ccccc1-c1ccccc1)C1OC(=O)c2ccccc21 (stereo unspecified) | 33.4 µM | > 100 µM | 57.6 µM | 53.4 µM | 72.5 µM | 37 µM | 87.6 µM | 61.4 µM |  |  |  |  |  |  |  |  |  |  | 
